Laboratory results published in patent EP4778531A1, “MUSCLE RELAXANT ANTAGONIST FOR REVERSAL FOR BENZYLISOQUINOLINE MUSCLE RELAXANT” (priority 2023, dated 2025).

Tests used:
[1] = system: Inflammation-Related Factors; type: in vivo, ICR mice; conditions: Adamgammadex sodium 1 g/kg, Sugammadex sodium 1 mg/kg, Neostigmine 0.3 mg/kg; for impact on inducing immune inflammation in mice (in words): conclusion from Tables 3 and 4; for Fluorescence Intensity M-CSF (Macrophage lysis-stimulating factor): second M-CSF line of Table 4
Method: An antibody array is a type of protein chip characterized by miniaturization, integration, and high throughput. It can be used to detect the expression abundance of proteins related to a specific physiological or pathological process. The principle involves arranging capture antibodies on a membrane or glass slide, incubating with the sample, adding biotin-labeled antibodies against the target proteins, and finally using HRP-streptavidin or fluorescein-streptavidin to detect the chip signal. Signals are detected using chemiluminescence or HiLyte™ Fluor 555-streptavidin.
In this experiment, ICR mice were randomly divided into a blank group, Adamgammadex sodium (1 g/kg) group, Sugammadex sodium (1 mg/kg) group, and Neostigmine (0.3 mg/kg) group, with 2 mice per group. Mice in each group given the corresponding dosage of compound via the tail vein once daily for 5 consecutive days. On the last day after administration, plasma from the 2 animals per group was mixed and detected using the Ary028 immune chip kit. Specific detection steps were as follows: • (1) Sample volume determination: 200 µL serum sample per Array unit. (2) Blocking protein chip: Each membrane was blocked with 2 mL of corresponding Array Buffer, incubated on a shaker for 1 hour. (3) Sample processing: Samples were diluted with corresponding Array Buffer to a volume of 1.5 mL per membrane, the corresponding Array unit was added, and incubated overnight with the Array protein membrane at 4°C. (4) Membranes were washed three times with corresponding Wash buffer, then diluted detection antibody was added and incubated at room temperature for 1 h. (5) Membranes were washed three times with corresponding Wash buffer, streptavidin-HRP was added and incubated for 30min at room temperature with shaking. (6) Membranes were washed three times with corresponding Wash buffer, 1 mL of chemiluminescent reagent was added to each well, and developed on a chemiluminescence imager. (7) Fluorescence intensity was used to represent the relative concentration of the corresponding protein.

[2] = system: Wild-type AB strain zebrafish; assay: Evaluation of compound-induced sensitization risk in zebrafish (tryptase OD, BAPNA); type: in vivo; conditions: 500 ng/tail
Method: Wild-type AB strain zebrafish at 2 days post-fertilization (2 dpf) were randomly selected and placed in 24-well plates. Each group was with 6 replicate wells per group and 10 zebrafish per well. The following groups were set up: (1) Normal control group; (2) Positive control group (the used drug was mast cell sensitizer C48/80 at 1.5 µg/mL concentration); (3) Compound 1 (adamgammadex sodium) experimental group; (4) Compound 2 experimental group; (5) Compound 3 experimental group; (6) Compound 4 experimental group; (7) Compound 5 experimental group; (8) Compound 6 experimental group; (9) Compound 7 (sugammadex sodium) experimental group. In the experimental groups, Compound 1 was adamgammadex sodium, Compounds 2-6 were adamgammadex sodium analogues, and Compound 7 was sugammadex sodium. The volume of each well was 1 mL, and all experimental groups were treated with BAPNA (a specific detection reagent for mast cell degranulation) dissolved in water. Table 1: Structural Formulas of Compounds 1-7
After 1 day of treatment at 28°C, the liquid was transferred to a 96-well plate, with 200 µL/well. The relative absorbance (OD value) of tryptase expression levels in each experimental group was measured using a microplate reader. The OD value statistical analysis results were used to evaluate the sensitization risk of the samples. Statistical analysis was performed using SPSS software, with p < 0.05 indicating a significant difference. Sensitization risk (%) = (OD(Samplegroup)−OD(NormalControlgroup))/(OD (NormalControlgroup)) × 100% [formula]

[3] = ICR mice, tail vein once daily for 5 days, pooled plasma of 2 mice, N.D. = below minimum detection limit

## CN(C)C(=O)Oc1cccc([N+](C)(C)C)c1 [Neostigmine, neostigmine methylsulfate]
[1]; [3]
  Fluorescence Intensity BAFF/BlyS/ TNFSF13B (B cell activation factor): 12170.94
  Fluorescence Intensity C-Reactive Protein/CRP (C-reactive protein): 11999.12
  Fluorescence Intensity CCL17/TARC (Thymus activation regulatory chemokine): 3653.32
  Fluorescence Intensity CCL19/MIP 3β (Macrophage inflammatory protein 3β): 3385.33
  Fluorescence Intensity CCL20/MIP 3α (Macrophage inflammatory protein 3α): 4440.55
  Fluorescence Intensity CCL21/6Ckine (Lymphocyte chemokine CCL21): 17119.34
  Fluorescence Intensity CCL22/MDC (Macrophage-derived chemokine): 4762.19
  Fluorescence Intensity CD160 (Leukocyte differentiation antigen160): 4298.1
  Fluorescence Intensity CX3CL1/ Gractalkine (Neural chemokine): 2935.07
  Fluorescence Intensity CXCL1/KC (Neutrophil chemokine): 2935.82
  Fluorescence Intensity CXCL9/MIG (IFN-γ-induced monocyte factor): 1730.04
  Fluorescence Intensity CXCL10/IP-10 (Interferon-induced protein 10): 1971.99
  Fluorescence Intensity CXCL11/I-TAC (Interferon-induced T cell chemokines): 2397.51
  Fluorescence Intensity CXCL13 (CXC family chemokine): 3607.1
  Fluorescence Intensity CXCL16 (CXC family chemokine): 2426.598
  Fluorescence Intensity Chemerin (Chemotactic factor): 7955.57
  Fluorescence Intensity G-CSF (Granulocyte colony-stimulating factor): 1289.56
  Fluorescence Intensity IL-2 (Interleukin-2): 1107.85
  Fluorescence Intensity IL-7 (Interleukin-7): 3226.41
  Fluorescence Intensity IL-10 (Interleukin-10): 1601.99
  Fluorescence Intensity IL-11 (Interleukin-11): 2195.99
  Fluorescence Intensity IL-12p40 (Interleukin IL-12p40): 2936.85
  Fluorescence Intensity IL-13 (Interleukin-13): 1609.58
  Fluorescence Intensity IL-15 (Interleukin-15): 1503.8
  Fluorescence Intensity IL-17A (Interleukin -17A): 783.45
  Fluorescence Intensity IL-22 (Interleukin-22): 1253.05
  Fluorescence Intensity IL-23 (Interleukin-23): 1483.72
  Fluorescence Intensity IL-27p28 (Interleukin-27p28): 1575.98
  Fluorescence Intensity IL-28 (Interleukin-28): 3505.78
  Fluorescence Intensity IL-33 (Interleukin-33): 1897.86
  Fluorescence Intensity M-CSF (Macrophage colony-stimulating factor): 6478.33
  Fluorescence Intensity Myeloperoxidase (Mastoperoxidase): 6395.44
  Fluorescence Intensity Pentraxin 3 (Pertussis toxin 3): 3694.57
  Fluorescence Intensity TIM-1/KIM-1/ HAVCR (Hepatitis A virus receptor-1 (inflammation/ immunity)): 1197.17
  Fluorescence Intensity M-CSF (Macrophage lysis-stimulating factor): 6478.33
[1]
  impact on inducing immune inflammation in mice (in words): most severe impact
[1]; second Pentraxin 3 line of Table 4, ICR mice, tail vein once daily for 5 days, pooled plasma of 2 mice, N.D. = below minimum detection limit
  Fluorescence Intensity Pentraxin 3/TSG-14 (Pertussis toxin 3): 3694.57

## Adamgammadex sodium [Compound 1]
[2]; 1 day at 28°C, relative absorbance of tryptase expression levels
  OD value (mean ± SE): 0.060 ± 0.001
[2]; 1 day at 28°C, vs normal control OD
  Sensitization risk (%): 11%
[2]; conclusion from OD value
  sensitization risk (in words): almost no sensitization risk
[1]; [3]
  Fluorescence Intensity BAFF/BlyS/ TNFSF13B (B cell activation factor): 6659.29
  Fluorescence Intensity C-Reactive Protein/CRP (C-reactive protein): 5549.81
  Fluorescence Intensity CCL21/6Ckine (Lymphocyte chemokine CCL21): 8082.61
  Fluorescence Intensity CCL22/MDC (Macrophage-derived chemokine): 738.38
  Fluorescence Intensity Chemerin (Chemotactic factor): 2680.26
  Fluorescence Intensity IL-7 (Interleukin-7): 1850.57
  Fluorescence Intensity IL-28 (Interleukin-28): 244.77
  Fluorescence Intensity M-CSF (Macrophage colony-stimulating factor): 871.82
  Fluorescence Intensity Myeloperoxidase (Mastoperoxidase): 1927.54
  Fluorescence Intensity M-CSF (Macrophage lysis-stimulating factor): 871.82
[1]
  impact on inducing immune inflammation in mice (in words): smallest impact
